Target: ROCK2 (human) (UniProt O75116)
Test: Inhibition of ROCK2 Kinase Activity

Sequence of ROCK2 (human) (O75116 whole entry, looked up): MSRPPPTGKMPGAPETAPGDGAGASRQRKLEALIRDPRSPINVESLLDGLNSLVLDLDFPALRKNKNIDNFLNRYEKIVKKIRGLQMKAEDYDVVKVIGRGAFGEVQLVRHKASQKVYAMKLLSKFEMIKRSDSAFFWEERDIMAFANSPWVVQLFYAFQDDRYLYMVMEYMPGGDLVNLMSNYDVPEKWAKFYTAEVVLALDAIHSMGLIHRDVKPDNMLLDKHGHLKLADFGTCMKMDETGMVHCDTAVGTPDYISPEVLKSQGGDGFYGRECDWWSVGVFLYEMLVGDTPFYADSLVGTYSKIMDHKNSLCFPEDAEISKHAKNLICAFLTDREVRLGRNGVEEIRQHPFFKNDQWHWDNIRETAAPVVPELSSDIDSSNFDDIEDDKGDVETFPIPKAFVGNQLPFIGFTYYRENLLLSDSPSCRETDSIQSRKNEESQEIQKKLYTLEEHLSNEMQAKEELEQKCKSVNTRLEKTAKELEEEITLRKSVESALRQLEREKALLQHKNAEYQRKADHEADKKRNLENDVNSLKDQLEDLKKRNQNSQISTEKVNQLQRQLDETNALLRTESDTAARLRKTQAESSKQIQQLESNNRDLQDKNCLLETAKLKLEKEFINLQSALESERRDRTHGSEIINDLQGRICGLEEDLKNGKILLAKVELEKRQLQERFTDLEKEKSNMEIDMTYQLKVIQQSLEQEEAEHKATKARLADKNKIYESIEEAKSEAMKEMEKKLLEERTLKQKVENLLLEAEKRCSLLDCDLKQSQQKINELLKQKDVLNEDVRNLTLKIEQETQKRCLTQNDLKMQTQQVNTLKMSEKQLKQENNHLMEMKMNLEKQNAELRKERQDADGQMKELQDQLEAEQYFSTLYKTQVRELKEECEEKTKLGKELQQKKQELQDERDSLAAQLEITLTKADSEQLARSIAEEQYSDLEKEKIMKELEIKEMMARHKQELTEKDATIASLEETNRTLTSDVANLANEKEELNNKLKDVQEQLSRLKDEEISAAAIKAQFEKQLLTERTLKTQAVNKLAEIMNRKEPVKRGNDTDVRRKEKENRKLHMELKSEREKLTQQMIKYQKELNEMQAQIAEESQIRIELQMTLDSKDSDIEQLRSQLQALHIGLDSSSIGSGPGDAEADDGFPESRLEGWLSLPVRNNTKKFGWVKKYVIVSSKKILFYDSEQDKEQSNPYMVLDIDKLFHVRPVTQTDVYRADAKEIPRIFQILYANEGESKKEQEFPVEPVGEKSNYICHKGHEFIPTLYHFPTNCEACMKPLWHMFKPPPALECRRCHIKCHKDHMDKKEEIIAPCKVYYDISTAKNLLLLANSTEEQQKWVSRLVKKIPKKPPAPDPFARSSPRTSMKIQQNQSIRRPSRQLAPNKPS

SMILES | IC50 [nM]
COc1ccc(-c2c(OC3CCNCC3)ccc3cnccc23)cc1N | ≤ 1000
Brc1c(OC2CCNCC2)ccc2cnccc12 | ≤ 1000
c1ccc2oc(-c3c(OC4CCNCC4)ccc4cnccc34)cc2c1 | ≤ 1000
COc1ccc2cc(CN3CCC(Oc4ccc5cnccc5c4)CC3)ccc2c1 | ≤ 1000
Clc1cc2cnccc2c(Cl)c1OC1CCNCC1 | ≤ 1000
c1ccc(-c2cc3cnccc3cc2OC2CCNCC2)cc1 | ≤ 1000

Further lines, results first:

IC50 [nM] | SMILES
≤ 1000 | COc1cc(Nc2cc3cc(OC4CCNCC4)ccc3cn2)cc(OC)c1OC
≤ 1000 | Cc1cc(OC2CCNCC2)c(C)c2ccncc12
≤ 1000 | CN1CCCC(COc2ccc3cnccc3c2Br)C1 (stereo not drawn)
≤ 1000 | Clc1cncc2ccc(OC3CCNCC3)cc12
≤ 1000 | Ic1c(OC2CCNCC2)ccc2cnccc12
≤ 1000 | c1cc2c(cc1Nc1cc3cc(OC4CCNCC4)ccc3cn1)OCO2
≤ 1000 | Clc1cc(OC2CCNCC2)cc2ccncc12

From the Kinase Knowledgebase extract (Sharma et al. 2016)
